Laboratory results taken from the supplement of paper PMC4862054.

Experiments:
[1] = tested on: HDQ-P1; test: normalised viability (% of control), CellTiter-Blue; higher = more viable cells (about 100 = DMSO control); conditions: incubation time: 72 h
Outline: (§1)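 Each value is normalised viability at a single listed concentration of the series. Breast cancer cell lines in 384-well plates were incubated 72 h with compound and read by CellTiter-Blue fluorescence at 560/590 nm, with vehicle set to 100 and a positive kill control to 0 on every plate.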

[2] = tested on: CAL-85-1; test: as above; conditions: incubation time: 72 h
Outline: as §1

[3] = tested on: DU-4475; test: as above; conditions: incubation time: 72 h
Outline: as §1

[4] = tested on: MDA-MB-231; test: as above; conditions: incubation time: 72 h
Outline: as §1

[5] = tested on: Hs578T; conditions: 72 h
Description: (§2)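 Drug sensitivity and resistance testing (DSRT) of breast cancer cell lines in 384-well plates, 5 concentrations in 10-fold dilutions over a compound-specific 10,000-fold range. After 72 h, cytotoxicity was read by CellTox Green fluorescence and viability by CellTiter-Glo luminescence (multiplexed), normalised to DMSO and benzethonium chloride controls. EC50 is the inflection point of the fitted dose-response curve (bottom asymptote free, so it can be relative for partial curves) and is censored at the highest tested concentration. Rows with DSS 0 (no meaningful response) were excluded.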

[6] = tested on: HCC1143; conditions: 72 h
Description: as §2

[7] = tested on: CAL-51; conditions: 72 h
Description: as §2

[8] = tested on: CAL-148; conditions: 72 h
Description: as §2

[9] = tested on: MCF-10A; conditions: 72 h
Description: as §2

[10] = tested on: CAL-120; conditions: 72 h
Description: as §2

[11] = tested on: CAL-85-1; conditions: 72 h
Description: as §2

[12] = tested on: MDA-MB-468; conditions: 72 h
Description: as §2

[13] = tested on: BT-474; conditions: 72 h
Description: as §2

[14] = tested on: MDA-MB-436; conditions: 72 h
Description: as §2

[15] = tested on: MFM-223; conditions: 72 h
Description: as §2

[16] = tested on: MDA-MB-231; conditions: 72 h
Description: as §2

[17] = tested on: HCC1599; conditions: 72 h
Outline: (§3)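 Rows with a drug sensitivity score of zero were dropped, and EC50 was taken from the fitted percent-inhibition dose-response curve, censored at the highest concentration. Data were normalised on each plate to vehicle and a positive kill control and checked by Z'-factor. The assay seeded breast cancer cell lines in 20 µl onto 384-well plates pre-loaded with compound in 5 µl medium for 72 h, then added 2.5 µl CellTiter-Blue for 2 h at 37 °C and read fluorescence at 560/590 nm.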

[18] = tested on: HCC1937; conditions: 72 h
Outline: as §3

[19] = tested on: Hs578T; conditions: 72 h; remark: listed apart in the source
Outline: as §3

[20] = tested on: HCC1143; conditions: 72 h; remark: listed apart in the source
Outline: as §3

[21] = tested on: CAL-120; conditions: 72 h; remark: listed apart in the source
Outline: as §3

[22] = tested on: SK-BR-3; conditions: 72 h
Outline: as §3

[23] = tested on: MDA-MB-468; conditions: 72 h; remark: listed apart in the source
Outline: as §3

[24] = tested on: BT-474; conditions: 72 h; remark: listed apart in the source
Outline: as §3

[25] = tested on: MDA-MB-436; conditions: 72 h; remark: listed apart in the source
Outline: as §3

[26] = tested on: MFM-223; conditions: 72 h; remark: listed apart in the source
Outline: as §3

[27] = tested on: MDA-MB-231; conditions: 72 h; remark: listed apart in the source
Outline: as §3

[28] = tested on: BT-549; conditions: 72 h
Outline: as §3

[29] = tested on: HDQ-P1; conditions: 72 h
Outline: (§4)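 Breast cancer cell lines in 20 µl suspension were added to 384-well plates already holding compound at 5 concentrations, spaced in 10-fold steps across a compound-specific 10,000-fold range, and incubated for 72 h. CellTox Green fluorescence (485/520 nm) was read first to measure cell death, followed by CellTiter-Glo luminescence for viability after 10 min at room temperature. Each plate was normalised to 0.1 % DMSO and a positive kill control. EC50 values came from dose-response curve fits and were censored at the top concentration.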

[30] = tested on: HCC1599; conditions: 72 h; remark: listed apart in the source
Outline: as §4

[31] = tested on: HCC1143; conditions: 72 h; remark: listed apart in the source
Outline: as §4

[32] = tested on: CAL-148; conditions: 72 h; remark: listed apart in the source
Outline: as §4

[33] = tested on: DU-4475; conditions: 72 h
Outline: as §4

[34] = tested on: MFM-223; conditions: 72 h; remark: listed apart in the source
Outline: as §4

[35] = tested on: HDQ-P1; conditions: 72 h; remark: listed apart in the source
Outline: as §3

[36] = tested on: CAL-51; conditions: 72 h; remark: listed apart in the source
Outline: as §3

[37] = tested on: CAL-148; conditions: 72 h; remark: listed apart in the source
Outline: as §3

[38] = tested on: CAL-85-1; conditions: 72 h; remark: listed apart in the source
Outline: as §3

[39] = tested on: DU-4475; conditions: 72 h; remark: listed apart in the source
Outline: as §3

[40] = tested on: MDA-MB-453; conditions: 72 h
Description: as §2

[41] = tested on: HCC1937; conditions: 72 h; remark: listed apart in the source
Description: as §2

C/C(=C\c1csc(C)n1)[C@@H]1C[C@@H]2O[C@]2(C)CCC[C@H](C)[C@H](O)[C@@H](C)C(=O)C(C)(C)[C@@H](O)CC(=O)O1 [Patupilone]
normalised viability ([1]; 3 nM): 107% | normalised viability ([2]; 3 nM): 49.4% | normalised viability ([3]; 3 nM): 89.2% | normalised viability ([4]; 100 nM): 20.1% | EC50, CellTox Green [5]: 206 nM | EC50, CellTox Green [6]: 596 nM | EC50, CellTox Green [7]: 2.63 nM | EC50, CellTox Green [8]: 34.8 nM | EC50, CellTox Green [9]: 145 nM | EC50, CellTox Green [10]: 162 nM | EC50, CellTox Green [11]: 53.3 nM | EC50, CellTox Green [12]: 1.67 nM | EC50, CellTox Green [13]: 35.1 nM | EC50, CellTox Green [14]: 8.93 nM | EC50, CellTox Green [15]: 609 nM | EC50, CellTox Green [16]: 136 nM | EC50, CellTiter-Blue viability [17]: 211 nM | EC50, CellTiter-Blue viability [18]: 2.26 nM | EC50, CellTiter-Blue viability [19]: 6.7 nM | EC50, CellTiter-Blue viability [20]: 9.87 nM | EC50, CellTiter-Blue viability [21]: 8.13 nM | EC50, CellTiter-Blue viability [22]: 5.58 nM | EC50, CellTiter-Blue viability [23]: 2.77 nM | EC50, CellTiter-Blue viability [24]: 10.9 nM | EC50, CellTiter-Blue viability [25]: 7.26 nM | EC50, CellTiter-Blue viability [26]: 13 nM | EC50, CellTiter-Blue viability [27]: 0.95 nM | EC50, CellTiter-Blue viability [28]: 4.38 nM | EC50, CellTiter-Glo [29]: 66.7 nM | EC50, CellTiter-Glo [30]: 584 nM | EC50, CellTiter-Glo [31]: 18.9 nM | EC50, CellTiter-Glo [32]: 30 nM | EC50, CellTiter-Glo [33]: 93.8 nM | EC50, CellTiter-Glo [34]: 156 nM | EC50, CellTiter-Blue viability [35]: 16.5 nM | EC50, CellTiter-Blue viability [36]: 11.4 nM | EC50, CellTiter-Blue viability [37]: 3.13 nM | EC50, CellTiter-Blue viability [38]: 1.56 nM | EC50, CellTiter-Blue viability [39]: 11.1 nM

C[C@]12CC[C@H](O)CC1=CC[C@@H]1[C@@H]2CC[C@]2(C)C(c3cccnc3)=CC[C@@H]12 [Abiraterone]
normalised viability ([1]; 15 nM): 108% | normalised viability ([2]; 15 nM): 80.5% | normalised viability ([3]; 15 nM): 80.8% | normalised viability ([4]; 500 nM): 106%

CC(C)(C#N)c1cc(Cn2cncn2)cc(C(C)(C)C#N)c1 [Anastrozole]
normalised viability ([1]; 30 nM): 89.2% | normalised viability ([2]; 30 nM): 86.5% | normalised viability ([3]; 30 nM): 94.2% | normalised viability ([4]; 1000 nM): 80.4% | EC50, CellTox Green [40]: > 10000 nM

Cn1c(=O)n(-c2ccc(C(C)(C)C#N)cc2)c2c3cc(-c4cnc5ccccc5c4)ccc3ncc21 [Dactolisib]
EC50, CellTox Green [41]: 80.7 nM | EC50, CellTox Green [8]: 100 nM | EC50, CellTox Green [11]: 197 nM | EC50, CellTox Green [15]: 579 nM | EC50, CellTiter-Glo [29]: 12.8 nM | EC50, CellTiter-Glo [31]: 17.9 nM | EC50, CellTiter-Glo [32]: 18.7 nM | EC50, CellTiter-Glo [33]: 42.8 nM | EC50, CellTiter-Glo [34]: 14.8 nM
